From patent publication US8710076B2, “2,5-disubstituted piperidine orexin receptor antagonists” (Merck Sharp & Dohme Corp., priority 2008, dated 2014)

Molecular target: orexin-2 receptor (OX2R) (Homo sapiens (Human), UniProt O43614)
Test: radioligand binding assay, membranes from CHO cells expressing OX2
Conditions: membranes prepared from CHO cells expressing OX2
Method: The utility of the compounds in accordance with the present invention as orexin receptor OX1R and/or OX2R antagonists may be readily determined without undue experimentation by methodology well known in the art, including the “FLIPR Ca^2+Flux Assay” (Okumura et al., Biochem. Biophys. Res. Comm. 280:976-981, 2001). In a typical experiment the OX1 and OX2 receptor antagonistic activity of the compounds of the present invention was determined in accordance with the following experimental method. For intracellular calcium measurements, Chinese hamster ovary (CHO) cells expressing the rat OX1 receptor or the human OX2 receptor, are grown in Iscove's modified DMEM containing 2 mM L-glutamine, […], 1% hypoxanthine-thymidine supplement, 100 U/ml penicillin, 100 ug/ml streptomycin and 10% heat-inactivated fetal calf serum (FCS). The cells are seeded at 20,000 cells/well into Becton-Dickinson black 384-well clear bottom sterile plates coated with poly-D-lysine. All reagents were from GIBCO-Invitrogen Corp. The seeded plates are incubated overnight at 37° C. and 5% CO2. Ala-6,12 human orexin-A as the agonist is prepared as a 1 mM stock solution in 1% bovine serum albumin (BSA) and diluted in assay buffer (HBSS containing 20 mM HEPES, 0.1% BSA and 2.5 mM probenecid, pH7.4) for use in the assay at a final concentration of 70 pM. Test compounds are prepared as 10 mM stock solution in DMSO, then diluted in 384-well plates, first in DMSO, then assay buffer. On the day of the assay, cells are washed 3 times with 100 ul assay buffer and then incubated for […] (37° C., 5% CO2) in 60 ul assay buffer containing 1 uM Fluo-4AM ester, 0.02% pluronic acid, and 1% BSA. The dye loading solution is then aspirated and cells are washed 3 times with 100 ul assay buffer. 30 ul of that same buffer is left in each well. Within the Fluorescent Imaging Plate Reader (FLIPR, Molecular Devices), test compounds are added to the plate in a volume of 25 ul, incubated for 5 min and finally 25 ul of agonist is added. Fluorescence is measured for each well at 1 second intervals for 5 minutes and the height of each fluorescence peak is compared to the height of the fluorescence peak induced by 70 pM Ala-6,12 orexin-A with buffer in place of antagonist. […] Alternatively, compound potency can be assessed by a radioligand binding assay (described in Bergman et. al. Bioorg. Med. Chem. Lett. 2008, 18, 1425-1430) in which the inhibition constant (Ki) is determined in membranes prepared from CHO cells expressing either the orexin-1 (OX1) or orexin-2 (OX2) receptor. The intrinsic orexin receptor antagonist activity of a compound which may be used in the present invention may be determined by these assays.

orexin-2 receptor (OX2R), sequence (O43614 whole entry): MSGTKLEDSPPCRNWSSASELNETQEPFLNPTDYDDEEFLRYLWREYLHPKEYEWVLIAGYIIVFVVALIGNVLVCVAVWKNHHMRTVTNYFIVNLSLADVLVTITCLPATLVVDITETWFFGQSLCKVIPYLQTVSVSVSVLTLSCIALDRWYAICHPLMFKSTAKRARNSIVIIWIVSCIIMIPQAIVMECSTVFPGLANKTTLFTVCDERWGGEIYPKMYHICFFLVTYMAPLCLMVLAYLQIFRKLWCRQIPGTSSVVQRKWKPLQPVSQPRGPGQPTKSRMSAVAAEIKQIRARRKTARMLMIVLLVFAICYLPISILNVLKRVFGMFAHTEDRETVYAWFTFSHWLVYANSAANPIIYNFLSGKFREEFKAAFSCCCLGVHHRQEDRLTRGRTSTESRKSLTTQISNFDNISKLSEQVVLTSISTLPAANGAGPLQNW

Going from `C[C@@H]1CC[C@@H](Oc2cccc3ocnc23)CN1C(=O)c1ccccc1-n1nccn1` (mixture of isomers) [1-1, (2R,5R)- and (2S,5S)-4-({6-methyl-1-[2-(2H-1,2,3-triazol-2-yl)benzoyl]piperidin-3-yl}oxy)-l,3-benzoxazole] to `C[C@@H]1CC[C@@H](Oc2ccnc3c(F)cccc23)CN1C(=O)c1ccccc1-n1nccn1` [E-2], the Ki falls from 18.3 nM to 0.55 nM (33-fold).

First: C[C@@H]1CC[C@@H](Oc2nccc3ccccc23)CN1C(=O)c1ccccc1-n1nccn1 [F-2, 1-({(2R,5R)-6-methyl-1-[2-(2H-1,2,3-triazol-2-yl)benzoyl]piperidin-3-yl}oxy)-isoquinoline]
Second: Cc1ccc(-n2nccn2)c(C(=O)N2C[C@H](Nc3nccc4ccccc34)CC[C@H]2C)c1 [H-4, N-{(2R,5R)-6-methyl-1-[5-methyl-2-(2H-1,2,3-triazol-2-yl)benzoyl]piperidin-3-yl}isoquinolin-1-amine]
The Ki of the first is 5.1-fold lower: 0.11 nM for the first, 0.56 nM for the second.
